Results on 1 compound are retold here after the NIST ThermoML archive (doi:10.1021/je800920d).

Molecules are shown by their SMILES. Numbers after ± are expanded uncertainties.

Data set [1] is described as follows: Molar enthalpy of transition or fusion. The conditions noted are these: Crystal; DSC.
For data set [2] the following is noted: Crystal; DTA.

As for `COc1ccc2cc([C@H](C)C(=O)O)ccc2c1` [(S)-(+)-naproxen], the “Molar enthalpy of transition or fusion” value in data set [1] was determined as 31.4 ± 0.9 kJ/mol. In addition, in data set [2], the Normal melting temperature was found to be 154.6 ± 0.5 °C.
